Key:
Assay type in all cases: cell-based
[1] = test system: Candida parapsilosis B66126; experiment: Antifungal activity in vitro (resazurin susceptibility screen), Inf. D; conditions: Candida parapsilosis B66126, 37 °C, 24 hours, resa time 4 hours
Protocol: (§1) The standard susceptibility screen was performed in 96-well plates (U-bottom, Greiner Bio-One). […] These serial dilutions (10 n1) were then spotted onto test-plates that could be stored in the dark at 4° C. for a maximum period of 2 weeks. […] A standard inoculum of 200 μl containing 10^3 colony-forming unit (cfu) was then added to each well. A positive control (100% growth=fungal culture without antifungal) and a negative control (0% growth ═RPMI-MOPS medium) were included on each plate.

[2] = test system: Trichophyton rubrum B68183; experiment: Antifungal activity in vitro (resazurin susceptibility screen), Inf. C; conditions: Trichophyton rubrum B68183, 27 °C, 7 days, resa time 24 hours
Protocol: (§2) The standard susceptibility screen was performed in 96-well plates (U-bottom, Greiner Bio-One). […] These serial dilutions (10 n1) were then spotted onto test-plates that could be stored in the dark at 4° C. for a maximum period of 2 weeks. […] The different fungal species/isolates (Table 3a) were cryopreserved and 1/1000 diluted in medium just prior to use. A standard inoculum of 200 μl containing 10^3 colony-forming unit (cfu) was then added to each well. A positive control (100% growth=fungal culture without antifungal) and a negative control (0% growth ═RPMI-MOPS medium) were included on each plate. […] [table]

[3] = test system: Cryptococcus neoformans B66663; experiment: Antifungal activity in vitro (resazurin susceptibility screen), Inf. F; conditions: 37 °C, 24 hours, resa time 4 hours; for Inf. F pIC50: Cryptococcus neoformans B66663
Protocol: as §2

[4] = test system: Sporothrix schenkii B62482; experiment: Antifungal activity in vitro (resazurin susceptibility screen), Inf. A; conditions: 27 °C, 4 days, resa time 24 hours, highest in-test concentration 64 μM; for Inf. A pIC50: Sporothrix schenkii B62482
Protocol: as §2

[5] = test system: Aspergillus fumigatus B42928; experiment: Antifungal activity in vitro (resazurin susceptibility screen), Inf. E; conditions: Aspergillus fumigatus B42928, 27 °C, 48 hours, resa time 17 hours
Protocol: as §2

Microsporum canis B68128 = experiment: Antifungal activity in vitro (resazurin susceptibility screen), Inf. B; conditions: 27 °C, 9 days, resa time 24 hours; for Inf. B pIC50: Microsporum canis B68128
Protocol: as §1

[6] = test system: Trichophyton mentagrophytes B70554; experiment: Antifungal activity in vitro (resazurin susceptibility screen), Inf. G; conditions: Trichophyton mentagrophytes B70554; 27 °C, 7 days, resa time 24 hours
Protocol: as §1

Row | Structure (SMILES) | Inf. D pIC50 [1] | Inf. C pIC50 [2] | Inf. F pIC50 [3] | Inf. A pIC50 [4] | Inf. E pIC50 [5] | Inf. B pIC50 (Microsporum canis B68128) | Inf. G pIC50 [6] | IC50 ([1]; Lodderomyces parapsilosis, read-out: Inf. D pIC50 (converted)) [µM] | IC50 ([2]; read-out: Inf. C pIC50 (converted)) [µM] | IC50 ([3]; Cryptococcus neoformans, B66663, Cryptococcus neoformans B66663, read-out: Inf. F pIC50 (converted)) [µM] | IC50 ([4]; Sporothrix, B62482, Sporothrix schenkii B62482, read-out: Inf. A pIC50 (converted)) [µM] | IC50 ([5]; read-out: Inf. E pIC50 (converted)) [µM] | IC50 (Microsporum canis B68128; Microsporum canis, B68128, Microsporum canis B68128, read-out: Inf. B pIC50 (converted)) [µM]
1 | CC(O)c1ccc(C2NCc3c(ccc(Cl)c3Cl)-n3cccc32)cc1.Cl (stereo not drawn) [Compound 2, 4-(7,8-dichloro-5,6-dihydro-4H-pyrrolo[1,2-a][1,4]benzodiazepin-4-yl)-alpha-methyl-benzenemethanol .HCl] | <4.2 | <4.2 | <4.2 | <4.2 | <4.2 | 4.7 | <4.2 | – | – | – | – | – | –
2 | CC(O)c1ccc(C2NCc3cc(Cl)cc(Cl)c3-n3cccc32)cc1.Cl (stereo not drawn) [Compound 3, 4-(8,10-dichloro-5,6-dihydro-4H-pyrrolo[1,2-a][1,4]benzodiazepin-4-yl)-alpha-methyl-benzenemethanol .HCl] | <4.2 | 6 | 4.7 | <4.2 | <4.2 | 5.0 | 4.4 | – | – | – | – | – | –
3 | CC(=O)c1cccc(C2NCc3c(Cl)cccc3-n3cccc32)c1 (stereo not shown) [Compound 4, 1-[3-(7-chloro-5,6-dihydro-4H-pyrrolo[1,2-a][1,4]benzodiazepin-4-yl)phenyl]-ethanone] | – | – | – | – | – | – | – | > 63.1 | 5.01 | > 63.1 | > 63.1 | > 63.1 | 10
4 | Br.CC(=O)c1ccc(C2NCc3c(Cl)cccc3-n3cccc32)cc1 (stereo not shown) [Compound 6, 1-[4-(7-chloro-5,6-dihydro-4H-pyrrolo[1,2-a][1,4]benzodiazepin-4-yl)phenyl]-ethanone .HBr] | <4.2 | 6.4 | <4.2 | 4.7 | 4.5 | 6.2 | – | – | – | – | – | – | –
5 | CC(=O)c1cc(C2NCc3c(Cl)cccc3-n3cccc32)ccc1F.Cl (stereo not shown) [Compound 7, 1-[5-(7-chloro-5,6-dihydro-4H-pyrrolo[1,2-a][1,4]benzodiazepin-4-yl)-2-fluorophenyl]-ethanone .HCl] | <4.2 | 6.0 | <4.2 | <4.2 | <4.2 | 5.1 | 5.2 | – | – | – | – | – | –
6 | CC(=O)c1ccc(C2NCc3c(ccc(Cl)c3Cl)-n3cccc32)cc1.Cl (stereo not shown) [Compound 9, 1-[4-(7,8-dichloro-5,6-dihydro-4H-pyrrolo[1,2-a][1,4]benzodiazepin-4-yl)phenyl]-ethanone .HCl] | <4.2 | 5.7 | 4.5 | 5.0 | <4.2 | 5.6 | 4.5 | – | – | – | – | – | –
7 | CC(=O)c1cccc(C2NCc3c(Cl)cc(Cl)cc3-n3cccc32)c1.Cl (stereo not shown) [Compound 10, 1-[3-(7,9-dichloro-5,6-dihydro-4H-pyrrolo[1,2-a][1,4]benzodiazepin-4-yl)phenyl]-ethanone .HCl] | <4.2 | 5.7 | <4.2 | <4.2 | <4.2 | 5.3 | 5.2 | – | – | – | – | – | –
8 | CC(=O)c1ccc(C2NCc3c(Cl)cc(Cl)cc3-n3cccc32)cc1.Cl (stereo not shown) [Compound 12, 1-[4-(7,9-dichloro-5,6-dihydro-4H-pyrrolo[1,2-a][1,4]benzodiazepin-4-yl)phenyl]-ethanone .HCl] | <4.2 | 5.7 | <4.2 | <4.2 | <4.2 | 4.9 | 5.1 | – | – | – | – | – | –
9 | CS(=O)(=O)c1cccc(C2=NCc3c(Cl)cccc3-n3cccc32)c1 [Compound 27] | <4.2 | 5.1 | 4.2 | <4.2 | <4.2 | 5.2 | 5.1 | – | – | – | – | – | –
